# Laboratory results from US6495171B2, “Interleukin-4 production inhibitors” (Kao Corporation, priority 1999, dated 2002).
# Legend:
# IL-4 production = experiment: Measurement of IL-4 production inhibiting ability (KLH-stimulated lymphocytes, ELISA); type: cell-based; settings: lymph node lymphocytes of KLH-sensitized Balb/c mice, KLH 10 μg/mL, 3 days, IL-4 in supernatant by ELISA; for IC50: Mus musculus, Lymphocyte, 72 h, read-out: IC50 (concentrations at which IL-4 yields were inhibited by 50%)
# Method: A 4 mg/mL solution of KLH (Keyhole Limpet Hemocyanin; product of Pierce Chemical Company) and Freund complete adjuvant FCA (Bacto Adjuvant Complete Freund; product of DIFCO) were mixed and emulsified at a volume ratio of 1:1. The resulting emulsion was subcutaneously injected at 200 μL/head to the foreleg paws and hind leg paws of Balb/c mice (female, 8 to 12 weeks old), whereby the mice were sensitized. About 7 days later, axillary and popliteal lymph nodes were excised. After the lymph nodes were washed in PBS, they were loosened between two slide glasses in RPMI medium which had been prepared by adding kanamycin and β-mercapto-ethanol to “RPMI 1640 Medium” (product of BRL) such that their final concentrations became 100 μg/mL and 100 μM, respectively, whereby a suspension of lymphocytes was prepared. The lymphocyte suspension was centrifuged twice at 1,000 rpm for 5 minutes, followed by suspension in the RPMI medium added with 10% FCS. The lymphocytes were spread at 4×10^5 lymphocytes/well over 96-well plates. Individual compounds or essential oils, which had been prepared at varied concentrations with 10% FCS-added RMPI medium, were added within a final concentration range of from 0.01 to 100 μg/mL. Subsequent to incubation at 37° C. for about 30 minutes in the presence of 5% CO2, KLH was added to give a final concentration of 10 μg/mL. After incubation at 37° C. for 3 days in the presence of 5% CO2, IL-4 in each supernatant was quantitated by ELISA.
# For the ELISA quantitation, “Mice IL-4 ELISA Kit” (product of Amersham Corp.) was used. Following a protocol attached to the kit, the quantitation was conducted using recombinant IL-4 as a standard substance. IL-4 production inhibition rates of the individual compounds at the varied concentrations were calculated [100-(IL-4 yield when the sample was added/IL-4 yield in a control added only with the culture medium)×100]. From the IL-4 production inhibition rates, IC50 values (concentrations at which IL-4 yields were inhibited by 50%) were determined.
# [1] = system: allergy to house dust mite antigen; experiment: Effects on allergy to house dust mite antigen (ear swelling); type: in vivo, Balb/c mice; settings: for Swelling inhibition rate (%): 20 μL topically on ear, 24 h after challenge; for inhibitory effects for allergy to the house dust mite antigen (in words): concentrations of 0.1% and 1.0%, statistically significant at 1% or 5% significance level
# Method: Tape stripping was applied 8 times with an adhesive cellophane tape (product of Nichiban Co., Ltd.) to shaved abdominal parts of Balb/c mice (female). The abdominal parts were coated with 50-μL portions of a house dust mite antigen, which had been obtained by dialyzing an allergen scratch extract “DANI” (product of Torii Pharmaceutical Co., Ltd.) and then concentrating the dialyzate ten-fold by ultrafiltration, so that the mice were sensitized. One, four, five and six days later, 20 μL portions of cedrol, cumin oil and cedarwood oil of concentrations shown in Table 2 (prepared by dissolving them in 70% ethanol solution) were topically applied onto one ears, respectively, and the same amount of the solvent control (70% ethanol solution) was applied at the others. Seven days after the sensitization, the mice were challenged on the dorsal ear lobe by subcutaneous injection of 10 μL of the same angiten solution. To measure ear swelling caused by nonspecific stimulation with the house dust mite antigen, 10-μL portions of the house dust mite antigen were subcutaneously injected to one ear lobes of unsensitized mice. Three and twenty hours after the stimulation, the ear lobes of the anesthetized mice were covered with pieces of paper towel soaked with purified water of 40° C., respectively. After that, 20 μL portions of the individual compounds were topically applied to one ears, respectively, while to the other, the same amount of the solvent control were applied. Twenty-four hours after stimulation, the thicknesses of the ears were measured by a thickness gauge, and differences from the thicknesses of the corresponding ears before the stimulation were recorded as ear swellings. Each ear swelling inhibition rate (%) was determined by the following formula: [ear swelling (solvent control)−ear swelling (sample)]/[ear swelling (solvent control)−ear swelling (nonspecific stimulation by the house dust mite antigen)]×100. Differences in swelling between the ear applied with the solvent control and the corresponding ears applied with the samples, respectively, were statistically analyzed by t-test, and any difference with significance level lower than 5% was considered statistically significant.
Compound,IC50 (IL-4 production) [µg/mL],IC50 (concentrations at which IL-4 yields were inhibited by 50%) (IL-4 production) [µg/mL],also measured
CC(C)=CCCC(C)CCO (stereo not shown) [Citronellol],37.3,–,–
C[C@H]1CC[C@@]2(O)C(C)(C)[C@@H]3CC[C@@]2(C)[C@H]1C3 [Patchouli alcohol],–,0.72,–
CC(C)=CCCC(C)=CCCC(C)=CCO [Farnesol],0.59,–,–
"CCOCC(O)COc1ccc(NC(=O)CC[S+](C)C)cc1 (stereo not shown) [Suplatast tosilate, reference compound]",50,–,–
Santalol,–,2.40,–
CC1CCC(C(C)C)C(O)C1 (stereo not shown) [Menthol],19.6,–,–
C[C@@H]1CC[C@@H]2[C@@H]1[C@H]1[C@@H](CC[C@@]2(C)O)C1(C)C [Globulol],1.08,–,Swelling inhibition rate (%) ([1]; Concentration 0.01 W/V %): 11%; Swelling inhibition rate (%) ([1]; Concentration 0.10 W/V %): 19%; Swelling inhibition rate (%) ([1]; Concentration 1.00 W/V %): 26%; inhibitory effects for allergy to the house dust mite antigen (in words) [1]: marked effects
CC(C)c1cccc(=O)c(O)c1 [Hinokitiol],0.1,–,–
C[C@@H]1CC[C@H]2C(C)(C)[C@H]3C[C@@]12CC[C@@]3(C)O [Cedrol],3,–,Swelling inhibition rate (%) ([1]; Concentration 0.01 W/V %): 8%; Swelling inhibition rate (%) ([1]; Concentration 0.10 W/V %): 14%; Swelling inhibition rate (%) ([1]; Concentration 1.00 W/V %): 13%; inhibitory effects for allergy to the house dust mite antigen (in words) [1]: marked effects
C=CCc1ccc(O)c(OC)c1 [Eugenol],5.6,–,–
C[C@H]1CC[C@@H](C(C)(C)O)CC2=C1CC[C@@H]2C [Guaiol],–,0.68,–
Cedrenol,–,3.34,–
CC1(C)CCC[C@@]2(C)CC[C@](C)(O)CC=C12 [Widdrol],–,4.00,–
CC(=O)O[C@]1(C)CC[C@@]23C[C@@H]1C(C)(C)[C@@H]2CC[C@H]3C [Cedryl acetate],0.78,–,–
Thujopsenol,–,3.60,–
Epiglobulol,–,1.14,–
CC(=O)C1=C(C)[C@@H]2C[C@@]3(C1)[C@H](C)CC[C@H]3C2(C)C [Acetylcedrene],–,1.60,–
